Reference: the supplement of paper PMC13380429

What was measured:
Conditions in all cases: 72 h
Vero E6 [1] = assay: drug sensitivity score (DSS) for viability; higher = more toxic; extreme values may be limits of the assay
U2OS [2] = assay: as above
HepG2 [3] = assay: as above
Calu-3 [4] = assay: as above
Caco-2 [5] = assay: as above
Vero E6 [6] = assay: relative viability EC50 (midpoint between 100% and the lowest measured viability); higher = less toxic
U2OS [7] = assay: as above
HepG2 [8] = assay: as above
Calu-3 [9] = assay: as above
Caco-2 [10] = assay: as above
Vero E6 [11] = assay: cell viability relative to DMSO; higher = less toxic
U2OS [12] = assay: as above
HepG2 [13] = assay: as above
Calu-3 [14] = assay: as above
Caco-2 [15] = assay: as above

Row | Structure (SMILES) | drug sensitivity score (Vero E6 [1]) | drug sensitivity score (U2OS [2]) | drug sensitivity score (HepG2 [3]) | drug sensitivity score (Calu-3 [4]) | drug sensitivity score (Caco-2 [5]) | relative viability EC50 (Vero E6 [6]) | relative viability EC50 (U2OS [7]) | relative viability EC50 (HepG2 [8]) | relative viability EC50 (Calu-3 [9]) | relative viability EC50 (Caco-2 [10]) | cell viability (Vero E6 [11]; 1 nM) | cell viability (Vero E6 [11]; 10 nM) | cell viability (Vero E6 [11]; 100 nM) | cell viability (Vero E6 [11]; 1000 nM) | cell viability (Vero E6 [11]; 10000 nM) | cell viability (U2OS [12]; 1 nM) | cell viability (U2OS [12]; 10 nM) | cell viability (U2OS [12]; 100 nM) | cell viability (U2OS [12]; 1000 nM) | cell viability (U2OS [12]; 10000 nM) | cell viability (HepG2 [13]; 1 nM) | cell viability (HepG2 [13]; 10 nM) | cell viability (HepG2 [13]; 100 nM) | cell viability (HepG2 [13]; 1000 nM) | cell viability (HepG2 [13]; 10000 nM) | cell viability (Calu-3 [14]; 1 nM) | cell viability (Calu-3 [14]; 10 nM) | cell viability (Calu-3 [14]; 100 nM) | cell viability (Calu-3 [14]; 1000 nM) | cell viability (Calu-3 [14]; 10000 nM) | cell viability (Caco-2 [15]; 1 nM) | cell viability (Caco-2 [15]; 10 nM) | cell viability (Caco-2 [15]; 100 nM) | cell viability (Caco-2 [15]; 1000 nM) | cell viability (Caco-2 [15]; 10000 nM)
1 | Clc1ccc(CO/N=C(\Cn2ccnc2)c2ccc(Cl)cc2Cl)c(Cl)c1 [oxiconazole] | 0 | 0 | 0 | 0 | 1.1 | > 10 µM | > 10 µM | > 10 µM | > 10 µM | > 10 µM | 99.9% | 105% | 95.4% | 102% | 95.5% | 100% | 97.3% | 97.6% | 91.1% | 92% | 97.4% | 103% | 105% | 98.5% | 89.7% | 97.5% | 87.3% | 83.4% | 94.8% | 103% | 106% | 94.8% | 99.8% | 90% | 83.5%
2 | c1ccc2c(Cc3c[nH]c4ccccc34)c[nH]c2c1 [3,3'-diindolylmethane] | 0.1 | 0 | 1.1 | 0 | 0 | > 10 µM | > 10 µM | > 10 µM | > 10 µM | > 10 µM | 99% | 102% | 100% | 93.4% | 89.3% | 100% | 102% | 101% | 104% | 94.3% | 93.6% | 101% | 97% | 86.8% | 91.7% | 104% | 98.5% | 97.2% | 104% | 98.6% | 108% | 117% | 91.3% | 117% | 102%
3 | C/C=C1\[C@H]2C=C(C)C[C@]1(N)c1ccc(=O)[nH]c1C2 [(-)-Huperzine A] | 0 | 0 | 0 | 0 | 0 | > 10 µM | > 10 µM | > 10 µM | > 10 µM | > 10 µM | 93% | 96.8% | 98% | 90.7% | 107% | 95.1% | 101% | 98.8% | 103% | 98.3% | 106% | 97.4% | 102% | 93% | 97.5% | 91% | 96.7% | 96.1% | 106% | 101% | 103% | 97.7% | 90.6% | 100% | 107%
4 | CCN(Cc1ccncc1)C(=O)C(CO)c1ccccc1 (stereo not given) [tropicamide] | 0 | 0 | 0 | 0 | 0 | > 10 µM | > 10 µM | > 10 µM | > 10 µM | > 10 µM | 94.2% | 88.8% | 91.8% | 84.8% | 102% | 91.7% | 98.8% | 95.4% | 99% | 103% | 106% | 98% | 107% | 91.9% | 97.8% | 98.6% | 90.5% | 101% | 95.9% | 103% | 86.2% | 96.9% | 97.2% | 89.4% | 101%
5 | N=C(NCc1ccc(Cl)cc1)SCCCc1c[nH]cn1 [clobenpropit] | 0 | 0 | 0.2 | 0.3 | 0 | > 10 µM | > 10 µM | > 10 µM | > 10 µM | > 10 µM | 101% | 100% | 97.4% | 93.3% | 97.5% | 110% | 104% | 99.5% | 98.3% | 99.6% | 94.2% | 106% | 105% | 102% | 84% | 108% | 100% | 103% | 101% | 82.4% | 97.5% | 96.2% | 101% | 93.5% | 104%
6 | CC(C)(C)NCC(O)c1cc(O)cc(O)c1 (stereo not given) [TERBUTALINE HEMISULFATE] | 0 | 0 | 0 | 0 | 0.6 | > 10 µM | > 10 µM | > 10 µM | > 10 µM | > 10 µM | 105% | 101% | 101% | 105% | 98.9% | 102% | 98.6% | 105% | 100% | 106% | 109% | 102% | 106% | 94.5% | 92.3% | 104% | 106% | 99.7% | 95% | 98.3% | 99% | 104% | 88.7% | 91.8% | 98.2%
7 | CC(C)(C)C(=O)OCOP(=O)(COCCn1cnc2c(N)ncnc21)OCOC(=O)C(C)(C)C [adefovir-dipivoxil] | 0 | 0.8 | 10.1 | 3.5 | 1.9 | > 10 µM | > 10 µM | 0.741 µM | 2.46 µM | > 10 µM | 101% | 106% | 107% | 99.7% | 89.3% | 96.2% | 101% | 97.8% | 102% | 75.5% | 106% | 93.8% | 101% | 49.1% | 25.2% | 92.9% | 97.6% | 106% | 95.5% | 47.6% | 93.7% | 87.6% | 87.5% | 95.4% | 75.6%
8 | CC1(C)N=C(N)N=C(N)N1OCCCOc1cc(Cl)c(Cl)cc1Cl | 0 | 0 | 0 | 0 | 0 | > 10 µM | > 10 µM | > 10 µM | > 10 µM | > 10 µM | 94.7% | 96.8% | 95.3% | 98% | 108% | 99.3% | 93.9% | 99.1% | 95.7% | 95% | 104% | 93.8% | 93.9% | 99.5% | 98.7% | 100% | 96.1% | 93.8% | 93.7% | 100% | 99.7% | 91.5% | 95.5% | 102% | 99.6%
9 | CN(C)C(=O)N[C@H]1CC[C@H](CCN2CCN(c3cccc(Cl)c3Cl)CC2)CC1 [cariprazine] | 0 | 0 | 0 | 0 | 0 | > 10 µM | > 10 µM | > 10 µM | > 10 µM | > 10 µM | 97.3% | 98.6% | 96.8% | 104% | 95.3% | 100% | 102% | 98% | 95.9% | 100% | 93% | 91.1% | 93.8% | 100% | 94.7% | 102% | 93% | 100% | 97.9% | 106% | 95.7% | 95.2% | 96.5% | 86.6% | 97.2%
10 | COc1ccc(Nc2ncnc3ccc(OC)cc23)cc1 | 0.2 | 0 | 0.6 | 1.5 | 0 | > 10 µM | > 10 µM | > 10 µM | > 10 µM | > 10 µM | 102% | 106% | 99.6% | 100% | 85.2% | 101% | 102% | 103% | 99% | 106% | 106% | 98.3% | 93.5% | 93% | 83% | 93.9% | 108% | 95.4% | 89.6% | 77.5% | 105% | 102% | 101% | 99.5% | 91.3%
11 | CN1CCN(CCCN2c3ccccc3Sc3ccc(S(=O)(=O)N(C)C)cc32)CC1 [thioproperazine] | 0.6 | 0 | 0 | 0 | 0.4 | > 10 µM | > 10 µM | > 10 µM | > 10 µM | > 10 µM | 99.3% | 95.9% | 94.9% | 85.2% | 90.6% | 107% | 97.1% | 104% | 99.7% | 97.9% | 108% | 103% | 105% | 99.6% | 92.5% | 98% | 93.5% | 105% | 103% | 90.9% | 95.7% | 93.3% | 89.6% | 113% | 79%
